# Measured values as given in patent US11007282B2, “Compositions for circulatory system visualization” (DICRONIS SAGL, priority 2015, dated 2021).
# Columns and labels:
# [1] = in vivo; cited from earlier work
# [2] = In vitro fluorescence quantification of PVP-ICG formulations (Kollidon 17 PF), microplate reader; conditions: λEx/Em 770/818 nm
smiles,measurement,setting,value
"CC1(C)C(/C=C/C=C/C=C/C=C2\N(CCCCS(=O)(=O)O)c3ccc4ccccc4c3C2(C)C)=[N+](CCCCS(=O)(=O)[O-])c2ccc3ccccc3c21 [ICG, sodium 4-[2-[(1E,3E,5E,7Z)-7-[1,1-dimethyl-3-(4-sulfonatobutyl)benzo[e]indol-2-ylidene]hepta-1,3,5-trienyl]-1,1-imethylbenzo[e]-indol-3-ium-3-yl]butane-1-sulfonate]",route of excretion,[1],excreted exclusively in the bile
same,n-fold increase of ICG fluorescence in presence of PVP compared to water solution,"[2]; ICG 0.025 mg/mL, Kollidon 17 PF 0.25 g/mL (1:10'000)",1.32 n-fold
same,n-fold increase of ICG fluorescence in presence of PVP compared to water solution,"[2]; ICG 0.06 mg/mL, Kollidon 17 PF 0.25 g/mL (1:4'166)",1.68 n-fold
same,n-fold increase of ICG fluorescence in presence of PVP compared to water solution,"[2]; ICG 0.15 mg/mL, Kollidon 17 PF 0.25 g/mL (1:1'666)",2.2 n-fold
